Experimental data published in patent publication US20250064799A1, “ORAL FORMULATIONS OF LEVOSIMENDAN FOR TREATING PULMONARY HYPERTENSION WITH HEART FAILURE WITH PRESERVED EJECTION FRACTION” (Tenax Therapeutics, Inc., priority 2021, published 2025).
“And” between values parts separate entries of the source, which are not always exact repeats. Identical values can stand only once.

Columns and labels:
[1] = test system: patients with PH-HFpEF; experiment: Six-minute walk test (6MWT/6MWD), I.V. to oral levosimendan transition study (TNX-LVO-05 open label extension of HELP); assay type: in vivo, human
Description: The initial HELP Study is described in PCT International Application Publication No. WO 2021/126884 and Burkhoff, et al. (2021) “Levosimendan improves hemodynamics and exercise tolerance in PH-HFpEF: results of the randomized placebo-controlled HELP trial,” the entire contents of each of which are incorporated by reference. […] Among the goals of the extension study was to determine the dose of oral levosimendan that could maintain the efficacy of the weekly I.V. infusions of levosimendan.
Once that dose is determined, the study is identical with respect to the protocol. Since the I.V. formulation is weight based, and bypasses issues of bioavailability that may be affected by drug absorption, a dose escalation strategy is being adopted, guided by the individual patient response and any adverse events that may occur. Thus, the measurement of a six-minute walk test and patient questionnaire before and after the transition was to ensure that the patient continues to benefit. In addition, the monitoring of the patients' blood pressure and heart rate each day was to ensure that the oral dose remains safe.
The following considerations justified amending the TNX-LVO-05 study protocol: • 1. The amended TNX-LVO-05 protocol included the same patients enrolled in the original study. This was not a new study of the patients currently enrolled. This was open label, with no blinding of patients or physicians, and no control group. • 2. The scope and purpose of the study was unchanged, with the exception that it offered the further extension of treatment allowed by the transition to oral therapy (See item #4). • 3. The amendment clearly delineated a stepwise and thoughtful titration of patients from their intravenous to oral levosimendan to ensure the safe and effective transition of their levosimendan regimen. • a. Patients were started on 1 mg daily, representing a dose generally less than half their total weekly weight-based dose regimen. • b. Patients were titrated based on tolerance to the daily levosimendan paying attention to their symptoms of PH-HFpEF, and special attention to specific adverse events of interest, heart rate and blood pressure. A daily diary captured patient vitals and symptoms to aid their physician in titrating patients at two-week intervals. • c. Patient response also was evaluated by clinical measures to provide the physician with additional information on the patient's response. • d. While most patients were expected to receive 2-3 mg daily at the conclusion of the transition study, the dose escalation strategy was included to allow all patients to realize the same benefit as they did from the I.V. formulation. • e. To document the sustained efficacy of the oral formulation in these patients, patients had to undergo a six-minute walk test and patient questionnaire prior to and at the end of the transition study. • 4. The transition to oral levosimendan allowed for extension of the study from its initial two years to an additional three years. This offers these PH-HFpEF patients, with no other treatments available, to continue on a drug that they have responded to. • 5. The amendment required patients to sign a revised informed consent to ensure patients are completely informed concerning the transition amendment. Patients that preferred to continue with their weekly 24-hour I.V. regimen were allowed to continue through the initial two-year period of the study and then will be withdrawn.
Methods: Patients with PH-HFpEF who were in the open label extension study of the HELP Trial for more than 18 months volunteered to enroll in this transition protocol. Patients were initiated with 1 mg/day of oral levosimendan 5-7 days after the last IV levosimendan infusion. The oral dose was increased every 2 weeks by 1 mg/day to a maximum of 4 mg/day over an 8 week period. The highest daily dose was determined by the investigator based on clinical assessments of symptoms and side effects. […]

[2] = test system: patients with PH-HFpEF; experiment: Serum BNP or NT-proBNP levels, I.V. to oral levosimendan transition study; assay type: in vivo, human
Description: Methods: Patients with PH-HFpEF who were in the open label extension study of the HELP Trial for more than 18 months volunteered to enroll in this transition protocol. Patients were initiated with 1 mg/day of oral levosimendan 5-7 days after the last IV levosimendan infusion. The oral dose was increased every 2 weeks by 1 mg/day to a maximum of 4 mg/day over an 8 week period. The highest daily dose was determined by the investigator based on clinical assessments of symptoms and side effects. The primary safety endpoints were change in resting heart rate and blood pressure from baseline to final study visit and all other adverse events. Secondary efficacy endpoints included change in six-minute walk distance (6MWD), serum brain natriuretic peptide (BNP) or NT-proBNP levels, and quality of life as assessed by Kansas City Cardiomyopathy Questionnaire clinical summary score (KCCQ-CS) and overall summary score (KCCQ-OS) from baseline to final study visit. All comparisons were the baseline and at week 6-8 measurements at the highest daily dose of levosimendan.
• Change in six-minute walk distance (6MWD) from baseline to final study visit • Change in serum brain natriuretic peptide (BNP) or NT-proBNP levels from baseline to final study visit • Change in quality of life as assessed by Kansas City Cardiomyopathy Questionnaire clinical summary score (KCCQ-CS) and overall summary score (KCCQ-OS) from baseline to final study visit
All comparisons were the baseline and at week 6-8 measurements at the highest daily dose of levosimendan.

[3] = individual patients transitioned from weekly I.V. to oral levosimendan
[4] = oral levosimendan compared to weekly I.V. infusion

C[C@@H]1CC(=O)NN=C1c1ccc(NN=C(C#N)C#N)cc1 [levosimendan]
6MW Change (BL vs Week 6 only) [1, 3]: −137 and 78 and −27 and 118 and −10 and −4 and 5 and −9 and −8 and 9 and −17 and 40 and 30 (2×) and 15 and −1
6MW Change (Baseline vs Week 6/8) [1, 3]: −15 and 78 and −27 and −10 and −31 and −4 and 24 and −23 and −112 and 9 and −17 and 30 (3×) and −1
6MWD Change from baseline to Week 6 - Oral, Maximum ([1]; n=16): 118
6MWD Change from baseline to Week 6 - Oral, Median ([1]; n=16): 2.0
6MWD Change from baseline to Week 6 - Oral, Minimum ([1]; n=16): −137
6MWD Week 6 - Oral, Maximum ([1]; n=16, oral levosimendan): 550 m
6MWD Week 6 - Oral, Mean ([1]; n=16, oral levosimendan): 302.0
6MWD Week 6 - Oral, Median ([1]; n=16, oral levosimendan): 292.0
6MWD Week 6 - Oral, Minimum ([1]; n=16, oral levosimendan): 91
mean change in 6MWD ([1]; n=17, baseline to final study visit, oral levosimendan): 13.1 (SD±39.5) meters
improvement in six minute walk distance [1, 4]: 32%
change in NT-proBNP ([2]; n=7, baseline to final study visit, oral levosimendan): −239.4 (SD 548.1) pg/dl
change in BNP ([2]; n=8, baseline to final study visit, oral levosimendan): −133.3 (SD 136.6) pg/dl
improvement in BNP/NT-ProBNP biomarker measurements [2, 4]: 22%
